Data published in PMC9640980, “Pharmacological evaluation of enantiomerically separated positive allosteric modulators of cannabinoid 1 receptor, GAT591 and GAT593” (Frontiers in Pharmacology, 2022).

Key:
[1] = target: T1, human CB1R (hCB1R) (Homo sapiens, UniProt P21554); assay: HitHunter cAMP inhibition assay in hCB1R CHO-K1 cells (10 µM forskolin); assay type: cell-based; details: value (95% CI)
T1 construct: host or cells: CHO-K1 (PathHunter βarrestin2 line)
Procedure: (§1) HitHunter (cAMP) and PathHunter (βarrestin2) Chinese hamster ovary (CHO)-K1 cells stably-expressing human CB1R (hCB1R) from DiscoveRx (Eurofins, Freemont, CA) were maintained at 37°C, 5% CO2 in DMEM/F-12 containing 10% fetal bovine serum (FBS) and 5 U × 10^4 U penicillin/streptomycin (ThermoFisher, Mississauga, ON). In addition, 800 μg/ml geneticin was used for CHO-K1 hCB1R HitHunter cAMP cells and 800 μg/ml geneticin and 300 μg/ml hygromycin B was used for CHO-K1 hCB1R PathHunter βarrestin2 cells.
cAMP inhibition was performed in the presence of 10 µM forskolin (FSK) using the DiscoveRx HitHunter assay in hCB1R CHO-K1 cells. Cells (16,000 cells/well in 96 well plates) were incubated overnight in Opti-MEM (Invitrogen) containing 1% FBS at 37°C and 5% CO2. Opti-MEM media was removed and replaced with cell assay buffer (DiscoveRx) and then cells were simultaneously treated with 10 µM FSK and experimental compounds (0.10 nM–10 µM) for 90 min cAMP antibody solution and working detection solutions were added according to the manufacturer’s protocol (DiscoveRx), and cells were incubated for 60 min at room temperature. cAMP solution A was added according to the manufacturer’s protocol (DiscoveRx) and cells were incubated for an additional 60 min at room temperature before chemiluminescence was measured on a Cytation5 plate reader (top read, gain 200, integration time 10 s).
(§2) Data related to EC50 and E max in Figures 3, 4 were obtained with nonlinear regression models (3-parameter model, GraphPad Prism 9.0, San Diego, CA). […] Significance was determined by one- or two-way ANOVA followed by Tukey’s or Bonferroni’s post-hoc test as indicated. p < 0.05 was considered significant and p values were only employed where ANOVA was used. Data related to Figure 5 was analyzed in GraphPad Prism 9.0 was used to analyze in vivo data and p < 0.05 was considered to be statistically significant. Data are expressed as mean ± SEM. Group sizes for all experiments are described in figure legends.

[2] = target: T1, human CB1R (hCB1R); assay: PathHunter βarrestin2 recruitment assay in hCB1R CHO-K1 cells; assay type: cell-based; details: for activity in the βarrestin2 recruitment assay as PAM, in words: as PAMs, 100 nM CP55,940; for βarrestin2 recruitment to hCB1R, in words: as agonist (and PAM where stated), Figures 3B,D; for EC50: compound alone, hCB1R CHO-K1, 90 min, value (95% CI), Figure 3B, read-out: EC50 (nM) 95% C.I., βarrestin2 recruitment as agonist
Procedure: as §1
βarrestin2 recruitment was determined using the hCB1R CHO-K1 cell PathHunter assay (DiscoveRx). Cells (16,000 cells/well in 96 well plates) were incubated overnight in Opti-MEM (Invitrogen) containing 1% FBS at 37°C and 5% CO2. Cells were then simultaneously treated with experimental compounds (0.10 nM–10 µM) for 90 min. Detection solution was added to cells according to the manufacturer’s protocol (DiscoveRx), and cells were incubated for 60 min at room temperature. Chemiluminescence was measured on a Cytation5 plate reader (top read, gain 200, integration time 10 s).
as §2

[3] = target: T2, hCB1R (Homo sapiens, UniProt P21554); assay: [3H]CP55,940 radioligand binding to hCB1R CHO-K1 cell membranes; details: for Emax ± S.E.M., [3H]CP55,940 bound: 1 nM [3H]CP55,940, Figure 4A
T2 construct: expressed in transfected cells; host or cells: CHO-K1 cell membranes
Procedure: The assay began with the addition of transfected hCB1R CHO-K1 cell membranes (25 µg protein per well). The assays were left to equilibrate at room temperature for 2 h before vacuum filtration using a Millipore Sigma 12-well sampling manifold and filter paper that had been soaked in wash buffer. Each reaction well was washed 3 times with a 2 ml aliquot of Tris-binding buffer. The filters were removed then submerged in 5 ml of scintillation fluid (Ultima Gold F, PerkinElmer, Buckinghamshire, United Kingdom). Radioactivity was quantified by liquid scintillation spectrometry.
as §2

[4] = target: T2, hCB1R; assay: [35S]GTPγS G protein coupling assay, membranes of CHO-K1 cells overexpressing hCB1R; assay type: biochemical; details: absence of orthosteric agonist, Figure 4B; for EC50: value (95% CI), read-out: EC50 (nM) 95% C.I., [35S]GTPγS binding, compound alone
Procedure: This assay was conducted as described in previous reports ([Garai et al., 2020]). To summarize, the assay was completed in the presence of [35S]GTPγS (0.1 nM), GDP (30 µM), GTPγS (30 µM) using membranes derived from CHO-K1 cells (1 mg/ml) overexpressing hCB1R. Assay buffer consisted of 50 mM Tris, 10 mM MgCl2, 100 mM NaCl, 0.2 mM EDTA and 1 mM dithiothreitol (DTT) at pH 7.4. Membranes were incubated at 30°C for 90 min in a total volume of […]. Reactions were ended by the addition of ice-cold wash buffer (50 mM Tris and 1 mg/ml BSA, pH 7.4) followed by rapid filtration under vacuum through pre-soaked Whatman GF/B glass-fibre filters in a 24-well sampling manifold (Brandel Cell Harvester; Brandel Inc., Gaithersburg, MD, United States). Reaction wells were washed six times with a 1.2 ml aliquots of Tris-binding buffer. Filters were subsequently oven-dried for 60 min and placed in 3 ml of scintillation fluid (Ultima Gold XR, PerkinElmer). Bound radioactivity was determined by liquid scintillation counting. Basal [35S]GTPγS binding was determined in the presence of […] GDP without any compounds present. Non-specific binding was determined in the presence of […] GTPγS.
as §2

[5] = test system: male C57BL/6 mice; assay: Triad assessment in mice: catalepsy (bar holding assay); assay type: in vivo, mouse; details: 0.1, 1, 3, or 10 mg/kg i.p. compared to vehicle, male C57BL/6 mice, Figure 5A
Procedure: (§3) Male C57BL/6 mice (Charles River, Senneville, QC) between 4 and 7 months of age were used for these studies. Animals were group housed at the Laboratory Animal Services Unit (LASU) at the University of Saskatchewan (3-5 animals/cage) with a standard 12:12 light-dark cycle, ad libitum access to food and water, and environmental enrichment. Compounds administered intraperitoneally (i.p.) were prepared in vehicle [ethanol and cremophor in saline (1:1:8)]. Catalepsy was assessed in the bar holding assay 5 min after drug administration. Mice were placed so that their forepaws clasped a 0.7 cm ring clamp positioned 4.5 cm above the surface of the testing space ([Zagzoog et al., 2021]). The length of time the ring was held was recorded in seconds. The trial ended if the mouse turned its head or body or made 3 consecutive escape attempts to a maximum of 60 s. Body temperature was measured by rectal thermometer 15 min after drug administration. Anti-nociceptive effects were measured in the warm water (52 ± 2°C) tail-flick test 20 min after drug administration. Response in this case was defined by the removal of the tail from the warm water, with a maximal response time of 20 s. Catalepsy and tail flick data are presented as percent maximum possible effect (MPE). Compounds were administered at the doses indicated. Experimenters were blinded to treatment for all behavioral assessments and analyses. Animals were purchased, rather than bred, to reduce animal numbers. In all cases, experiments were performed with the approval of the University Animal Care Committee (UACC) at the University of Saskatchewan and are in keeping with the guidelines of the Canadian Council on Animal Care (CCAC) and the ARRIVE guidelines ([Kilkenny et al., 2010]).

[6] = test system: male C57BL/6 mice; assay: Triad assessment in mice: body temperature (rectal thermometer); assay type: in vivo, mouse; details: 0.1, 1, 3, or 10 mg/kg i.p. compared to vehicle, male C57BL/6 mice, Figure 5B
Procedure: as §3

[7] = test system: male C57BL/6 mice; assay: Triad assessment in mice: nociception (warm water tail-flick test); assay type: in vivo, mouse; details: 0.1, 1, 3, or 10 mg/kg i.p. compared to vehicle, male C57BL/6 mice, Figure 5C
Procedure: as §3

[8] = test system: male C57BL/6 mice; design: method as in Garai et al., 2020; details: 0.1, 1, 3, or 10 mg/kg (i.p.) compared to vehicle; ref Garai et al., 2020; cited from earlier work
[9] = test system: male C57BL/6 mice; design: method as in Garai et al., 2020; details: 0.1, 1, 3, or 10 mg/kg (i.p.) compared to vehicle; ref Garai et al., 2020; cited from earlier work; remark: listed apart in the source
[10] = test system: male C57BL/6 mice; design: method as in Garai et al., 2020; details: significant relative to vehicle at 3 and 10 mg/kg; ref Garai et al., 2020; cited from earlier work
[11] = design: method as in Garai et al., 2020; details: racemic mixtures; ref Garai et al., 2020; cited from earlier work
[12] = 100 nM CP55,940 + compound, Figure 3C, read-out: EC50 (nM) 95% C.I., cAMP inhibition as PAM
[13] = compound alone, hCB1R CHO-K1, 90 min, Figure 3A, read-out: EC50 (nM) 95% C.I., cAMP inhibition as agonist

T1 sequence (P21554 whole entry): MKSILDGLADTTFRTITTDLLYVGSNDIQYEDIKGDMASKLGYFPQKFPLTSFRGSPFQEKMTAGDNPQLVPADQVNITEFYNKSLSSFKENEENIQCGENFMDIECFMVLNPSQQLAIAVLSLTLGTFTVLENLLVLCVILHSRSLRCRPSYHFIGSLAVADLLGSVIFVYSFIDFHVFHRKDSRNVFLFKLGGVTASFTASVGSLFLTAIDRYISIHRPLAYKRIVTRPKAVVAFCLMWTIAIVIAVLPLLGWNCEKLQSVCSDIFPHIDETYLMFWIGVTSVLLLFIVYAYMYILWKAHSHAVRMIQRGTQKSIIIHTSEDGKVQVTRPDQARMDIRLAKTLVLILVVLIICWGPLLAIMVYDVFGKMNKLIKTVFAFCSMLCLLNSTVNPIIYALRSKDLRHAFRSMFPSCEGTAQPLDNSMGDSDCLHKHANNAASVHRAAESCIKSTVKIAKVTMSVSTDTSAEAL
T2 sequence (P21554 whole entry): as above

Structure (SMILES) | EC50 [1, 12] [nM] | EC50 [1, 13] [nM] | activity in the βarrestin2 recruitment assay as PAM, in words [2] | βarrestin2 recruitment to hCB1R, in words [2] | EC50 [2] [nM] | EC50 [3] [nM] | Emax ± S.E.M., [3H]CP55,940 bound [3] [% radioligand bound] | Emax ± S.E.M., [35S]GTPγS binding, compound alone [4] | EC50 [4] [nM] | catalepsy, compound alone [5] | hypothermia, compound alone [6] | anti-nociceptive effects (tail flick), compound alone [7] | catalepsy, racemate alone [8] | hypothermia, racemate alone [9] | anti-nociceptive effect in the tail flick assay, racemate alone [10] | metabolic stability and blood brain barrier penetrance, in words [11]
O=[N+]([O-])CC(c1ccccc1F)c1c(-c2cccc(F)c2)[nH]c2c(F)cccc12 (stereo not shown) [GAT1666] | 270 | 1.3 | no activity | weak ability | > 10000 | 140 | 140 ± 6.1 | 29 ± 2.6 % stimulation above baseline | 120 | did not produce | did not produce | did not produce | – | – | – | –
O=[N+]([O-])CC(c1ccccc1F)c1c(-c2cccc(F)c2)[nH]c2cc(F)ccc12 (stereo not shown) [GAT1664] | 29 | 2.8 | no activity | did not recruit βarrestin2 | > 10000 | 110 | 140 ± 7.0 | 38 ± 3.1 % stimulation above baseline | 110 | did not produce | did not produce | did not produce | – | – | – | –
O=[N+]([O-])CC(c1ccccc1F)c1c(-c2cccc(F)c2)[nH]c2c(F)cccc12 (stereo not shown) [GAT593] | – | – | – | – | – | – | – | – | – | – | – | – | did not produce | did not produce | dose-dependent anti-nociceptive effect | superior to GAT591
